Test results taken from patent US10273226B2, “Pyrazolyl-heteroarylamides as pesticides” (Bayer Animal Health GmbH, priority 2014, dated 2019).

Legend:
Assay type in all cases: in vivo
[1] = tested on: Rhipicephalus sanguineus; assay: Rhipicephalus sanguineus in vitro contact test with adult brown dog ticks; conditions: application rate 5 μg/cm^2 (500 g/ha); after 48 h; ticks dead or moribund
Method in brief: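 Test tubes (25 ml) were coated by dissolving active ingredient in acetone p.a., diluting to the required concentration, and spreading 250 μl over the inner walls and base on an orbital shaker at 30 rpm for 2 h. Once dry, 5-10 adult Rhipicephalus sanguineus were added, and tubes were capped with perforated lids and kept horizontal in darkness at room temperature. At 48 h, ticks were knocked down and heated at 45-50° C. for up to 5 min. Those unable to climb away were counted dead or moribund, and efficacy ran from 0% to 100%.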

[2] = tested on: Tetranychus urticae; assay: Tetranychus urticae spray test, OP-resistant; conditions: application rate 100 g/ha; after 6 days
Method in brief: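 Bean leaf discs (Phaseolus vulgaris) carrying all stages of OP-resistant mites are sprayed with compound formulated in solvent and emulsifier-containing water. Efficacy (% mites killed) is scored after 6 days.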

[3] = tested on: Lucilia cuprina; assay: Lucilia cuprina test; conditions: application rate 100 ppm; L1 larvae; after 2 days
Method in brief: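 About 20 L1 larvae placed in vessels with minced horsemeat treated with compound (DMSO concentrate diluted in water) at the desired concentration. Kill (%) scored after 2 days; 100% means all larvae dead, 0% none.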

[4] = tested on: Musca domestica; assay: Musca domestica test; conditions: application rate 100 ppm; adult houseflies; after 2 days
Procedure: (§1) Solvent: dimethyl sulphoxide
To produce an appropriate active ingredient formulation, 10 mg of active ingredient are mixed with 0.5 ml of dimethyl sulphoxide, and the concentrate is diluted with water to the desired concentration.
Vessels containing a sponge treated with sugar solution and the active ingredient formulation of the desired concentration are populated with 10 adult houseflies (Musca domestica).
After 2 days, the kill in % is determined. 100% means that all of the flies have been killed; 0% means that none of the flies have been killed.

[5] = tested on: Myzus persicae; assay: Myzus persicae spray test; conditions: application rate 100 g/ha; after 6 days
Procedure: Myzus persicae—Spray Test
To produce an appropriate active ingredient formulation, 1 part by weight of active ingredient is dissolved using the specified parts by weight of solvent and made up with water containing an emulsifier concentration of 1000 ppm until the desired concentration is attained. To produce further test concentrations, the preparation is diluted with emulsifier-containing water.
Discs of Chinese cabbage leaves (Brassica pekinensis) infested by all stages of the green peach aphid (Myzus persicae) are sprayed with an active ingredient formulation of the desired concentration.
After 6 days, efficacy in % is determined. 100% means that all the aphids have been killed; 0% means that none of the aphids have been killed.

[6] = tested on: Phaedon cochleariae; assay: Phaedon cochleariae spray test; conditions: application rate 100 g/ha; larvae; after 7 days
Method in brief: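 Chinese cabbage leaf discs were sprayed with the compound formulated in water containing 1000 ppm emulsifier. After drying, they were infested with mustard beetle larvae. Efficacy was scored as % larvae killed after 7 days (100% = all dead, 0% = none).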

[7] = tested on: Spodoptera frugiperda; assay: Spodoptera frugiperda spray test; conditions: application rate 100 g/ha; caterpillars; after 7 days
Method in brief: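 Maize leaf discs were sprayed with compound formulated in solvent plus water containing 1000 ppm emulsifier, dried, then infested with Spodoptera frugiperda caterpillars. Efficacy in % mortality was scored after 7 days (100% all killed, 0% none).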

[8] = tested on: Ctenocephalides felis; assay: Ctenocephalides felis oral test; conditions: application rate 100 ppm in citrated cattle blood; after 2 days
Method in brief: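 Mortality in % was recorded 2 days after about 20 unfed adult cat fleas were allowed to imbibe citrated cattle blood containing the active ingredient through a parafilm membrane. The compound was first taken up in DMSO and then diluted with the blood to the desired concentration.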

[9] = tested on: Ctenocephalides felis; assay: Ctenocephalides felis in vitro contact test with adult cat fleas; conditions: application rate 5 μg/cm^2 (500 g/ha); after 48 h; fleas dead or moribund
Method in brief: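 Test tubes were coated with 250 μl acetone solution of compound, giving 5 μg/cm^2 at 900 ppm, then dried and stocked with 5-10 adult cat fleas. After 48 h at room temperature and ambient humidity, dead or moribund fleas were counted; efficacy given as % (100% = all dead or moribund).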

[10] = tested on: Boophilus microplus; assay: Boophilus microplus injection test; conditions: application rate 20 μg/animal; injection into abdomen; assessed after 7 days
Method in brief: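 Scoring was by fertile egg laying 7 days after injection, holding doubtful eggs until larvae hatched at about 42 days; 100% = no fertile eggs, 0% = all eggs fertile. Groups of 5 engorged adult female cattle ticks were each injected abdominally with 1 μl of compound in DMSO.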

[11] = tested on: Boophilus microplus Parkhurst strain, SP-resistant; assay: Boophilus microplus dip test; conditions: application rate 100 ppm, assessed after 7 days
Procedure: Boophilus microplus—Dip Test
Test animals: cattle ticks (Boophilus microplus) Parkhurst strain, SP-resistant
as §1
10 mg of active ingredient are dissolved in 0.5 ml of dimethyl sulphoxide. For the purpose of producing a suitable formulation, the active ingredient solution is diluted with water to the concentration desired in each case.
This active ingredient formulation is pipetted into tubes. 8-10 adult engorged female cattle ticks (Boophilus microplus) are transferred into a further tube with holes. The tube is immersed into the active ingredient formulation, and all the ticks are completely wetted. After the liquid has run out, the ticks are transferred on filter discs into plastic dishes and stored in a climate-controlled room.
Efficacy is assessed after 7 days by laying of fertile eggs. Eggs which are not visibly fertile are stored in a climate-controlled cabinet until the larvae hatch after about 42 days. An efficacy of 100% means that none of the ticks has laid any fertile eggs; 0% means that all the eggs are fertile.

## Cn1nc(C(F)(F)C(F)(F)F)c(C(F)(F)F)c1-n1cc(-c2cccc(NC(=O)c3ccc(F)cc3)c2)cn1 [Example 1-003]
[1]
  efficacy: 100%
[2]
  efficacy: 100%
[3]
  efficacy (kill in %): 100%
[4]
  efficacy (kill in %): 100%
[5]
  efficacy: 90%
[6]
  efficacy: 100%
[7]
  efficacy: 100%
[8]
  efficacy (kill in %): 100%
[9]
  efficacy: 100%
[10]
  efficacy (laying of fertile eggs): 100%

## Cn1nc(C(F)(F)C(F)(F)F)c(C(F)(F)F)c1-n1cc(-c2cccc(NC(=O)c3ccncc3F)c2)cn1 [Example 1-004]
[11]
  efficacy (laying of fertile eggs): 100%
[1]
  efficacy: 100%
[2]
  efficacy: 100%
[3]
  efficacy (kill in %): 100%
[4]
  efficacy (kill in %): 100%
[6]
  efficacy: 100%
[7]
  efficacy: 100%
[8]
  efficacy (kill in %): 100%
[9]
  efficacy: 100%
[10]
  efficacy (laying of fertile eggs): 100%

## Cn1nc(C(F)(F)C(F)(F)F)c(C(F)(F)F)c1-n1cc(-c2cccc(NC(=O)c3ccnc(Cl)c3)c2)cn1 [Example 1-006]
[2]
  efficacy: 100%
[3]
  efficacy (kill in %): 100%
[4]
  efficacy (kill in %): 100%
[5]
  efficacy: 100%
[6]
  efficacy: 100%
[7]
  efficacy: 100%
[8]
  efficacy (kill in %): 100%
[9]
  efficacy: 100%
[10]
  efficacy (laying of fertile eggs): 100%

## Cn1cc(C(=O)Nc2cccc(-c3cnn(-c4c(C(F)(F)F)c(C(F)(F)C(F)(F)F)nn4C)c3)c2)cn1 [Example 1-019]
[2]
  efficacy: 100%
[3]
  efficacy (kill in %): 100%
[4]
  efficacy (kill in %): 100%
[5]
  efficacy: 90%
[6]
  efficacy: 100%
[7]
  efficacy: 100%
[8]
  efficacy (kill in %): 100%
[10]
  efficacy (laying of fertile eggs): 100%

## Cn1nc(C(F)(F)C(F)(F)F)c(C(F)(F)F)c1-n1cc(-c2ccc(F)c(NC(=O)c3ncccn3)c2)cn1 [Example 1-036]
[1]
  efficacy: 100%
[3]
  efficacy (kill in %): 100%
[4]
  efficacy (kill in %): 100%
[5]
  efficacy: 100%
[6]
  efficacy: 100%
[7]
  efficacy: 100%
[8]
  efficacy (kill in %): 100%
[9]
  efficacy: 100%
[10]
  efficacy (laying of fertile eggs): 100%

## CN(C(=O)c1ccc(F)cc1)c1cc(-c2cnn(-c3c(C(F)(F)F)c(C(F)(F)C(F)(F)F)nn3C)c2)ccc1F [Example 1-037]
[11]
  efficacy (laying of fertile eggs): 80%
[3]
  efficacy (kill in %): 100%
[4]
  efficacy (kill in %): 90%
[6]
  efficacy: 100%
[7]
  efficacy: 100%
[8]
  efficacy (kill in %): 100%
[9]
  efficacy: 100%
[10]
  efficacy (laying of fertile eggs): 100%

## COc1cccc(C(=O)Nc2cc(-c3cnn(-c4c(C(F)(F)F)c(C(F)(F)C(F)(F)F)nn4C)c3)ccc2F)c1 [Example 1-042]
[11]
  efficacy (laying of fertile eggs): 90%
[1]
  efficacy: 100%
[2]
  efficacy: 100%
[3]
  efficacy (kill in %): 100%
[6]
  efficacy: 100%
[8]
  efficacy (kill in %): 100%
[10]
  efficacy (laying of fertile eggs): 100%

## Cn1nc(C(F)(F)C(F)(F)F)c(C(F)(F)F)c1-n1cc(-c2ccc(F)c(NC(=O)c3cccs3)c2)cn1 [Example 1-049]
[11]
  efficacy (laying of fertile eggs): 100%
[1]
  efficacy: 100%
[3]
  efficacy (kill in %): 100%
[4]
  efficacy (kill in %): 80%
[8]
  efficacy (kill in %): 100%
[9]
  efficacy: 100%
[10]
  efficacy (laying of fertile eggs): 100%

## Cc1ccc(C(=O)Nc2cc(-c3cnn(-c4c(C(F)(F)F)c(C(F)(F)C(F)(F)F)nn4C)c3)ccc2F)cc1 [Example 1-060]
[11]
  efficacy (laying of fertile eggs): 100%
[1]
  efficacy: 100%
[2]
  efficacy: 100%
[3]
  efficacy (kill in %): 100%
[6]
  efficacy: 100%
[7]
  efficacy: 83%
[8]
  efficacy (kill in %): 100%
[9]
  efficacy: 80%
[10]
  efficacy (laying of fertile eggs): 100%

## CC(C)C(=O)Nc1cc(-c2cnn(-c3c(C(F)(F)F)c(C(F)(F)C(F)(F)F)nn3C)c2)ccc1F [Example 1-064]
[1]
  efficacy: 100%
[2]
  efficacy: 100%
[3]
  efficacy (kill in %): 100%
[5]
  efficacy: 100%
[6]
  efficacy: 100%
[7]
  efficacy: 100%
[8]
  efficacy (kill in %): 100%
[9]
  efficacy: 100%
[10]
  efficacy (laying of fertile eggs): 100%

## Cn1nc(C(F)(F)C(F)(F)F)c(C(F)(F)F)c1-n1cc(-c2ccc(F)c(NC(=O)c3cccc(F)c3)c2)cn1 [Example 1-073]
[11]
  efficacy (laying of fertile eggs): 100%
[1]
  efficacy: 100%
[2]
  efficacy: 100%
[3]
  efficacy (kill in %): 100%
[4]
  efficacy (kill in %): 90%
[6]
  efficacy: 100%
[7]
  efficacy: 100%
[8]
  efficacy (kill in %): 100%
[9]
  efficacy: 100%
[10]
  efficacy (laying of fertile eggs): 100%

## CCC(=O)Nc1cc(-c2cnn(-c3c(C(F)(F)F)c(C(F)(F)C(F)(F)F)nn3C)c2)ccc1F [Example 1-076]
[1]
  efficacy: 100%
[2]
  efficacy: 90%
[3]
  efficacy (kill in %): 95%
[5]
  efficacy: 100%
[6]
  efficacy: 100%
[7]
  efficacy: 100%
[8]
  efficacy (kill in %): 100%
[9]
  efficacy: 100%
[10]
  efficacy (laying of fertile eggs): 100%

## Cc1cccc(C(=O)Nc2cc(-c3cnn(-c4c(C(F)(F)F)c(C(F)(F)C(F)(F)F)nn4C)c3)ccc2F)c1C [Example 1-080]
[11]
  efficacy (laying of fertile eggs): 100%
[8]
  efficacy (kill in %): 95%
[10]
  efficacy (laying of fertile eggs): 100%

## Cc1oncc1C(=O)Nc1cc(-c2cnn(-c3c(C(F)(F)F)c(C(F)(F)C(F)(F)F)nn3C)c2)ccc1F [Example 1-081]
[1]
  efficacy: 100%
[2]
  efficacy: 100%
[3]
  efficacy (kill in %): 100%
[5]
  efficacy: 100%
[6]
  efficacy: 100%
[7]
  efficacy: 100%
[8]
  efficacy (kill in %): 100%
[9]
  efficacy: 100%
[10]
  efficacy (laying of fertile eggs): 100%

## Cn1nc(C(F)(F)C(F)(F)F)c(C(F)(F)F)c1-n1cc(-c2ccc(F)c(NC(=O)c3cncc(F)c3)c2)cn1 [Example 1-086]
[1]
  efficacy: 100%
[2]
  efficacy: 90%
[3]
  efficacy (kill in %): 100%
[4]
  efficacy (kill in %): 100%
[5]
  efficacy: 100%
[6]
  efficacy: 100%
[7]
  efficacy: 100%
[8]
  efficacy (kill in %): 100%
[9]
  efficacy: 100%
[10]
  efficacy (laying of fertile eggs): 100%

## Cn1nc(C(F)(F)C(F)(F)F)c(C(F)(F)F)c1-n1cc(-c2cnc(Cl)c(NC(=O)c3ccc(F)cc3)c2)cn1 [Example 2-001]
[11]
  efficacy (laying of fertile eggs): 80%
[1]
  efficacy: 100%
[2]
  efficacy: 100%
[3]
  efficacy (kill in %): 100%
[4]
  efficacy (kill in %): 100%
[6]
  efficacy: 100%
[7]
  efficacy: 100%
[8]
  efficacy (kill in %): 100%
[10]
  efficacy (laying of fertile eggs): 100%
